Data taken from PubChem BioAssay (NCI).
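All cell lines were grown in 96-well plates and treated with compound for 48 hours. At the GI50, growth is halved. TGI: total growth inhibition.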

Tests used:
Test in all cases: NCI tumour cell line growth inhibition, 48 h
ACHN renal = test system: ACHN renal
DU-145 prostate = test system: DU-145 prostate
P388 leukemia = test system: P388 leukemia
SN12K1 renal = test system: SN12K1 renal
P388/ADR leukemia = test system: P388/ADR leukemia
HOP-18 NSCLC = test system: HOP-18 NSCLC
LXFL 529 NSCLC = test system: LXFL 529 NSCLC
786-0 renal = test system: 786-0 renal
RXF-631 renal = test system: RXF-631 renal

Compound: N=c1c2c(=S)n(-c3ccccc3)c(=S)n(-c3ccccc3)c2nc(SCCCN2CCN(c3cccc(Cl)c3)CC2)n1-c1ccccc1
- TGI (ACHN renal): > 100 µM
- TGI (DU-145 prostate): > 100 µM

Compound: COC(=O)c1cccc(N[C@@H]2c3cc4c(cc3C(c3cc(OC)c(O)c(OC)c3)[C@H]3C(=O)OCC32)OCO4)c1 (stereo partly specified)
- TGI (P388 leukemia): 0.826 µM
- TGI (SN12K1 renal): 9.75 µM
- TGI (P388/ADR leukemia): 1.58 µM
- TGI (HOP-18 NSCLC): 21.6 µM

Compound: C=C1C(=O)OC2/C=C(/C)C3CC(O)C(C)(CC(OC(=O)/C(C)=C/C)C12)O3 (stereo unspecified)
- TGI (ACHN renal): 6.71 µM
- TGI (LXFL 529 NSCLC): 5.84 µM
- TGI (786-0 renal): 11.5 µM
- TGI (HOP-18 NSCLC): 31.2 µM

Compound: O=C(O)CS
- TGI (LXFL 529 NSCLC): > 100 µM
- TGI (786-0 renal): > 100 µM

Compound: Nc1nc(Cl)cc(OCC2(CO)CC(OCc3ccccc3)C2)n1 (stereo unspecified)
- GI50 (ACHN renal): 41.5 µM
- GI50 (DU-145 prostate): 66.3 µM

Compound: COc1cc(/C=C/c2cc(/C=C/c3ccc(O)c(OC)c3)nc(N)n2)ccc1O
- GI50 (ACHN renal): 2.54 µM
- TGI (ACHN renal): 7.88 µM
- GI50 (DU-145 prostate): 2.4 µM
- TGI (DU-145 prostate): 6.31 µM

Compound: CC(=O)Oc1ccc2c(c1)oc1c3ccc(OC(C)=O)cc3n(C)c(=O)c21
- TGI (ACHN renal): > 100 µM
- TGI (DU-145 prostate): > 100 µM

Compound: C=C1C(=O)C[C@@]23CCC[C@@]12CC(OCOC)C3 (stereo partly specified)
- TGI (P388 leukemia): 1.92 µM
- TGI (SN12K1 renal): 4.13 µM
- TGI (P388/ADR leukemia): 2.09 µM
- TGI (HOP-18 NSCLC): 11.5 µM

Compound: S=P1(N2CCCCC2)Oc2ccc3ccccc3c2-c2c(ccc3ccccc23)O1
- TGI (P388 leukemia): > 100 µM
- TGI (SN12K1 renal): > 100 µM
- TGI (P388/ADR leukemia): > 100 µM
- TGI (HOP-18 NSCLC): > 100 µM

Compound: Cc1cc(C)c2c(c1)CC1(Cc3c(C)ccc(C)c3C1=O)C2=O (stereo unspecified)
- TGI (ACHN renal): > 100 µM
- TGI (DU-145 prostate): > 100 µM

Compound: N=C(N)c1ccc(-c2ccc(-c3ccccc3)s2)cc1
- GI50 (ACHN renal): 1.67 µM
- TGI (ACHN renal): 3.03 µM
- GI50 (DU-145 prostate): 1.75 µM
- TGI (DU-145 prostate): 3.17 µM

Compound: O=[N+]([O-])c1ccccc1NC1c2ccccc2Oc2ccccc21
- GI50 (ACHN renal): 5.93 µM
- TGI (ACHN renal): > 100 µM
- GI50 (DU-145 prostate): 43 µM
- TGI (DU-145 prostate): > 100 µM

Compound: O=C1C=CC2=[N+]([O-])C(c3ccccc3)(c3ccccc3)C(=Nc3ccccc3)C2=C1
- TGI (ACHN renal): 3.36 µM
- TGI (LXFL 529 NSCLC): 3.36 µM
- TGI (RXF-631 renal): 11.1 µM
- TGI (HOP-18 NSCLC): 7.52 µM

Compound: CCCCCCCC/C=C\CCCCCCCC(=O)O
- TGI (P388 leukemia): 274 µM
- TGI (SN12K1 renal): 175 µM
- TGI (P388/ADR leukemia): 200 µM

Compound: CN(C)Cc1cc(C(C)(C)C)ccc1-c1ccc(C(C)(C)C)cc1CN(C)C
- TGI (ACHN renal): > 100 µM
- TGI (786-0 renal): > 100 µM
- TGI (DU-145 prostate): > 100 µM

Compound: CCN(CC)CCCNc1ncc(C)c2[nH]c3ccncc3c12
- TGI (P388 leukemia): 15.3 µM
- TGI (SN12K1 renal): 19.9 µM
- TGI (P388/ADR leukemia): > 100 µM

Compound: CN1CCCCC(C#N)(c2ccccc2)CC1 (stereo unspecified)
- TGI (ACHN renal): > 100 µM
- TGI (786-0 renal): > 100 µM
- TGI (DU-145 prostate): > 100 µM

Compound: COC(C(=O)C(O)C(C)O)C1CC2C=C3C=C(OC4CC(OC5CC(O)C(OC)C(C)O5)C(OC(C)=O)C(C)O4)C(C)C(=O)C3=C(O)C2=C(O)C1OC1CC(OC2CC(OC3CC(C)(O)C(OC(=O)C(C)C)C(C)O3)C(O)C(C)O2)C(O)C(C)O1 (stereo unspecified)
- TGI (786-0 renal): < 0.01 µM
- TGI (DU-145 prostate): < 0.01 µM
